pIC50: −log10 of the molar value.
What was measured:
[1] = In vitro reactive metabolite assay; type: in vitro ADME; details: data not shown
TP (h) (TXA2/PGH2) = target: T1, TP (h) (TXA2/PGH2) (Homo sapiens, UniProt P21731); assay: CEREP binding panel; details: antagonist radioligand, read-out: % Inhibition of Control Specific Binding
T1 construct: purchased Millipore KinaseProfiler (kinases); Cerep (receptors and ion channels)

ARG = target: T2, ARG (Homo sapiens, UniProt P42684); assay: Millipore kinase panel; type: biochemical; details: ATP at Km, read-out: % Control
T2 construct: purchased Millipore KinaseProfiler (kinases); Cerep (receptors and ion channels)

DRAK1 = target: T3, DRAK1 (Homo sapiens, UniProt Q9UEE5); assay: Millipore kinase panel; type: biochemical; details: read-out: % Control
T3 construct: purchased Millipore KinaseProfiler (kinases); Cerep (receptors and ion channels)

MAPK2 = target: T4, MAPK2 (Homo sapiens, UniProt P28482); assay: Millipore kinase panel; type: biochemical; details: ATP at Km, read-out: % Control
T4 construct: purchased Millipore KinaseProfiler (kinases); Cerep (receptors and ion channels)

MKK6 = target: T5, MKK6 (Homo sapiens, UniProt P52564); assay: Millipore kinase panel; type: biochemical; details: read-out: % Control
T5 construct: purchased Millipore KinaseProfiler (kinases); Cerep (receptors and ion channels)

MST1 = target: T6, MST1 (Homo sapiens, UniProt Q13043); assay: Millipore kinase panel; type: biochemical; details: read-out: % Control
T6 construct: purchased Millipore KinaseProfiler (kinases); Cerep (receptors and ion channels)

PAK3 = target: T7, PAK3 (Homo sapiens, UniProt O75914); assay: Millipore kinase panel; type: biochemical; details: read-out: % Control
T7 construct: purchased Millipore KinaseProfiler (kinases); Cerep (receptors and ion channels)

ACK1 = target: T8, ACK1 (Homo sapiens, UniProt Q07912); assay: Millipore kinase panel; type: biochemical; details: read-out: % Control
T8 construct: purchased Millipore KinaseProfiler (kinases); Cerep (receptors and ion channels)

CYP450 2C19 = CYP450 2C19 (Homo sapiens, UniProt P33261); assay: CYP450 inhibition; type: in vitro ADME
AURKA = target: T9, AURKA (Homo sapiens, UniProt O14965); assay: Millipore kinase panel; type: biochemical; details: read-out: % Control
T9 construct: purchased Millipore KinaseProfiler (kinases); Cerep (receptors and ion channels)

EGFR(L861Q) = target: T10, EGFR(L861Q) (Homo sapiens, UniProt P00533, L861Q); assay: Millipore kinase panel; type: biochemical; details: read-out: % Control
T10 construct: purchased Millipore KinaseProfiler (kinases); Cerep (receptors and ion channels)

EPHA4 = target: T11, EPHA4 (Homo sapiens, UniProt P54764); assay: Millipore kinase panel; type: biochemical; details: read-out: % Control
T11 construct: purchased Millipore KinaseProfiler (kinases); Cerep (receptors and ion channels)

FLT3(D835Y) = target: T12, FLT3(D835Y) (Homo sapiens, UniProt P36888, D835Y); assay: Millipore kinase panel; type: biochemical; details: read-out: % Control
T12 construct: purchased Millipore KinaseProfiler (kinases); Cerep (receptors and ion channels)

IGF-1R = target: T13, IGF-1R (Homo sapiens, UniProt P08069); assay: Millipore kinase panel; type: biochemical; details: read-out: % Control
T13 construct: purchased Millipore KinaseProfiler (kinases); Cerep (receptors and ion channels)

CKIT(D816V) = target: T14, CKIT(D816V) (Homo sapiens, UniProt P10721, D816V); assay: Millipore kinase panel; type: biochemical; details: read-out: % Control
T14 construct: purchased Millipore KinaseProfiler (kinases); Cerep (receptors and ion channels)

P70S6K = target: T15, P70S6K (Homo sapiens, UniProt P23443); assay: Millipore kinase panel; type: biochemical; details: read-out: % Control
T15 construct: purchased Millipore KinaseProfiler (kinases); Cerep (receptors and ion channels)

PKBALPHA = target: T16, PKBALPHA (Homo sapiens, UniProt P31749); assay: Millipore kinase panel; type: biochemical; details: read-out: % Control
T16 construct: purchased Millipore KinaseProfiler (kinases); Cerep (receptors and ion channels)

PKCBETAI = target: T17, PKCBETAI (Homo sapiens, UniProt P05771); assay: Millipore kinase panel; type: biochemical; details: read-out: % Control
T17 construct: purchased Millipore KinaseProfiler (kinases); Cerep (receptors and ion channels)

PKCEPSILON = target: T18, PKCEPSILON (Homo sapiens, UniProt Q02156); assay: Millipore kinase panel; type: biochemical; details: read-out: % Control
T18 construct: purchased Millipore KinaseProfiler (kinases); Cerep (receptors and ion channels)

TSSK2 = target: T19, TSSK2 (Homo sapiens, UniProt Q96PF2); assay: Millipore kinase panel; type: biochemical; details: read-out: % Control
T19 construct: purchased Millipore KinaseProfiler (kinases); Cerep (receptors and ion channels)

CK1GAMMA2 = target: T20, CK1GAMMA2 (Homo sapiens, UniProt P78368); assay: Millipore kinase panel; type: biochemical; details: read-out: % Control
T20 construct: purchased Millipore KinaseProfiler (kinases); Cerep (receptors and ion channels)

CAMKIIGAMMA = target: T21, CAMKIIGAMMA (Homo sapiens, UniProt Q13555); assay: Millipore kinase panel; type: biochemical; details: read-out: % Control
T21 construct: purchased Millipore KinaseProfiler (kinases); Cerep (receptors and ion channels)

CKIT(D816H) = target: T22, CKIT(D816H) (Homo sapiens, UniProt P10721, D816H); assay: Millipore kinase panel; type: biochemical; details: read-out: % Control
T22 construct: purchased Millipore KinaseProfiler (kinases); Cerep (receptors and ion channels)

EGFR(T790M) = target: T23, EGFR(T790M) (Homo sapiens, UniProt P00533, T790M); assay: Millipore kinase panel; type: biochemical; details: read-out: % Control
T23 construct: purchased Millipore KinaseProfiler (kinases); Cerep (receptors and ion channels)

EGFR(T790M,L858R) = target: T24, EGFR(T790M,L858R) (Homo sapiens, UniProt P00533, L858R/T790M); assay: Millipore kinase panel; type: biochemical; details: read-out: % Control
T24 construct: purchased Millipore KinaseProfiler (kinases); Cerep (receptors and ion channels)

MER = target: T25, MER (Homo sapiens, UniProt Q12866); assay: Millipore kinase panel; type: biochemical; details: read-out: % Control
T25 construct: purchased Millipore KinaseProfiler (kinases); Cerep (receptors and ion channels)

PDGFRALPHA(V561D) = target: T26, PDGFRALPHA(V561D) (Homo sapiens, UniProt P16234, V561D); assay: Millipore kinase panel; type: biochemical; details: read-out: % Control
T26 construct: purchased Millipore KinaseProfiler (kinases); Cerep (receptors and ion channels)

CHK2(I157T) = target: T27, CHK2(I157T) (Homo sapiens, UniProt O96017, I157T); assay: Millipore kinase panel; type: biochemical; details: read-out: % Control
T27 construct: purchased Millipore KinaseProfiler (kinases); Cerep (receptors and ion channels)

ABL (H396P) = target: T28, ABL (H396P) (Homo sapiens, UniProt P00519, H396P); assay: Millipore kinase panel; type: biochemical; details: read-out: % Control
T28 construct: purchased Millipore KinaseProfiler (kinases); Cerep (receptors and ion channels)

ABL (M351T) = target: T29, ABL (M351T) (Homo sapiens, UniProt P00519, M351T); assay: Millipore kinase panel; type: biochemical; details: read-out: % Control
T29 construct: purchased Millipore KinaseProfiler (kinases); Cerep (receptors and ion channels)

ABL(Y253F) = target: T30, ABL(Y253F) (Homo sapiens, UniProt P00519, Y253F); assay: Millipore kinase panel; type: biochemical; details: read-out: % Control
T30 construct: purchased Millipore KinaseProfiler (kinases); Cerep (receptors and ion channels)

TIE2(Y897S) = target: T31, TIE2(Y897S) (Homo sapiens, UniProt Q02763, Y897S); assay: Millipore kinase panel; type: biochemical; details: read-out: % Control
T31 construct: purchased Millipore KinaseProfiler (kinases); Cerep (receptors and ion channels)

PI3 KINASE (H1047R/P85A) = target: T32, PI3 KINASE (H1047R/P85A) (Homo sapiens, UniProt P42336, H1047R); assay: Millipore kinase panel; type: biochemical; details: read-out: % Control
T32 construct: purchased Millipore KinaseProfiler (kinases); Cerep (receptors and ion channels)

PEK = target: T33, PEK (Homo sapiens, UniProt Q9NZJ5); assay: Millipore kinase panel; type: biochemical; details: read-out: % Control
T33 construct: purchased Millipore KinaseProfiler (kinases); Cerep (receptors and ion channels)

PRKAA2 = target: T34, PRKAA2 (Homo sapiens, UniProt P54646); assay: Millipore kinase panel; type: biochemical; details: read-out: % Control
T34 construct: purchased Millipore KinaseProfiler (kinases); Cerep (receptors and ion channels)

hERG = hERG (Homo sapiens, UniProt Q12809); assay: hERG inhibition
CYP450 1A2 = CYP450 1A2 (Homo sapiens, UniProt P05177); assay: CYP450 inhibition
CYP450 2B8 = CYP450 2B8 (Homo sapiens, UniProt P20813); assay: CYP450 inhibition
RKO-F1522 cells = assay: EF1-α promoter firefly luciferase control reporter; details: Homo sapiens, read-out: IC50, firefly luciferase reporter downstream of the EF1-α promoter

T15 sequence (P23443 whole entry): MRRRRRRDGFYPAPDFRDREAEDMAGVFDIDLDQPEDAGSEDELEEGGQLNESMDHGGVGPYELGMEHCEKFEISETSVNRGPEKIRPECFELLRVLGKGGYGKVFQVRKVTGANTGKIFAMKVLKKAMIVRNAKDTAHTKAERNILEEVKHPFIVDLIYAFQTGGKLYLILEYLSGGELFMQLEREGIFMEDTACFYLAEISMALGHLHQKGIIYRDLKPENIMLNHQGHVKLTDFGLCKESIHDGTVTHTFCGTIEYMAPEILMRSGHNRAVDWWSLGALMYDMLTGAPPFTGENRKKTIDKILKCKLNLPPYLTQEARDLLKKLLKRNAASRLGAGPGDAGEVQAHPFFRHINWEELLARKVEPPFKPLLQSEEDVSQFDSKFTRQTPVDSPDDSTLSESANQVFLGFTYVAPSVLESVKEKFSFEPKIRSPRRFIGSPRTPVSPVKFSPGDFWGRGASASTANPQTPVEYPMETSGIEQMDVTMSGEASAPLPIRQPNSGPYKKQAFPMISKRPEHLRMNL
hERG, sequence (Q12809 whole entry): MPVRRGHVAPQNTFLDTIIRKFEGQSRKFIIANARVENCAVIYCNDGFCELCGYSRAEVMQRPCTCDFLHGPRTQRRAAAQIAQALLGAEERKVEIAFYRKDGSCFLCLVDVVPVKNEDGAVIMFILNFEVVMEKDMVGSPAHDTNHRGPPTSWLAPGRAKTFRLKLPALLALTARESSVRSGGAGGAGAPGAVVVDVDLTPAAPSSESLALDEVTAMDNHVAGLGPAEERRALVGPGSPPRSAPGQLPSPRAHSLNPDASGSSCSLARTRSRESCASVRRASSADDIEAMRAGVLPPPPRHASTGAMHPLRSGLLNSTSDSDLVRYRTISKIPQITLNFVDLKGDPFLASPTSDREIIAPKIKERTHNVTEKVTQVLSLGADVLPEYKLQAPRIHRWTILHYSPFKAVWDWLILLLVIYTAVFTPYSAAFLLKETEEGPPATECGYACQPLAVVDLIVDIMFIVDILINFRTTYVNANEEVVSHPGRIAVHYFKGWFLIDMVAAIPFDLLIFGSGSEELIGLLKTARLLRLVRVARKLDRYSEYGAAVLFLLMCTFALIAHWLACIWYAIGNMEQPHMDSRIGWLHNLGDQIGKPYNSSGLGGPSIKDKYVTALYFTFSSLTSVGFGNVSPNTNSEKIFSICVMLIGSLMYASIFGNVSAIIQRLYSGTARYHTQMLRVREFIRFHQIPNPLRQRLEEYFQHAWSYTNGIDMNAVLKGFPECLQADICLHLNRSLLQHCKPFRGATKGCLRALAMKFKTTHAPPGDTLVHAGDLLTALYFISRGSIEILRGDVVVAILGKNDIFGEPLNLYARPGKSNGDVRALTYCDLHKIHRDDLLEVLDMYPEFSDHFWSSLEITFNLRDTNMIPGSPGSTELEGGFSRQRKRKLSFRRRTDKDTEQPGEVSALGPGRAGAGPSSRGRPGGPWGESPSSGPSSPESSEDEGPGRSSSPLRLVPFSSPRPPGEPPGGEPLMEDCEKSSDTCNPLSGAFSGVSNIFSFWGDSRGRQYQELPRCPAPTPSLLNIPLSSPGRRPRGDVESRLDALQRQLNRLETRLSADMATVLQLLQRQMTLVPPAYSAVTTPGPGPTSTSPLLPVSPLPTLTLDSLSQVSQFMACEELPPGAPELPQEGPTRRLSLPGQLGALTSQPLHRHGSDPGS
T24 sequence (P00533 25-1210 T790M/L858R): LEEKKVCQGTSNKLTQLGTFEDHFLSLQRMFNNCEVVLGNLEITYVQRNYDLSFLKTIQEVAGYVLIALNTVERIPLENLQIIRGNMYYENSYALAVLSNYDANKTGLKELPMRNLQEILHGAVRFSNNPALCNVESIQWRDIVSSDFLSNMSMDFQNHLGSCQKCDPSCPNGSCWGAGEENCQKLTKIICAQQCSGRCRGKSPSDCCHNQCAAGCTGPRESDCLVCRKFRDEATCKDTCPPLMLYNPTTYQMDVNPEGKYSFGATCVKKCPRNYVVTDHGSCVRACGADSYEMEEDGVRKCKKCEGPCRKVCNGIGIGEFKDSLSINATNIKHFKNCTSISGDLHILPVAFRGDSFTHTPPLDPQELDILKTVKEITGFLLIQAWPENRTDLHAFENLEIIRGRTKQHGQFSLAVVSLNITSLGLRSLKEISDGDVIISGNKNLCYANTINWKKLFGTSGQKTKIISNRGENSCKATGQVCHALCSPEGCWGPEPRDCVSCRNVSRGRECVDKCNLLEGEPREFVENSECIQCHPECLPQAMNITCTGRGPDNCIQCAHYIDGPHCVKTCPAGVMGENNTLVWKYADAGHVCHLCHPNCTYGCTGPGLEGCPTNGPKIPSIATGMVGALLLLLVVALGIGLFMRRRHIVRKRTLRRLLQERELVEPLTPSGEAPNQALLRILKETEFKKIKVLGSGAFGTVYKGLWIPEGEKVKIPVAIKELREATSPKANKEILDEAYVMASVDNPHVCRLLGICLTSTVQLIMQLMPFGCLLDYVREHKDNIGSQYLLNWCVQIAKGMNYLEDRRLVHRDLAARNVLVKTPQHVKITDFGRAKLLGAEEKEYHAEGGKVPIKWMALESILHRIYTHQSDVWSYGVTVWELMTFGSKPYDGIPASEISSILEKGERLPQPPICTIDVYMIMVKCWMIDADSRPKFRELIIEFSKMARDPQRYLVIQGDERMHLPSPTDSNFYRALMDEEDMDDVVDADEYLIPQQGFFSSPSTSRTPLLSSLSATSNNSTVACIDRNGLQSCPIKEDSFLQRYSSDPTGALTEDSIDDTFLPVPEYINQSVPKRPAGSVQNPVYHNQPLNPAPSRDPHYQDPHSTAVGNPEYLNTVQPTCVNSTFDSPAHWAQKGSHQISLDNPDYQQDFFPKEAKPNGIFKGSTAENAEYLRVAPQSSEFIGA
T7 sequence (O75914 whole entry): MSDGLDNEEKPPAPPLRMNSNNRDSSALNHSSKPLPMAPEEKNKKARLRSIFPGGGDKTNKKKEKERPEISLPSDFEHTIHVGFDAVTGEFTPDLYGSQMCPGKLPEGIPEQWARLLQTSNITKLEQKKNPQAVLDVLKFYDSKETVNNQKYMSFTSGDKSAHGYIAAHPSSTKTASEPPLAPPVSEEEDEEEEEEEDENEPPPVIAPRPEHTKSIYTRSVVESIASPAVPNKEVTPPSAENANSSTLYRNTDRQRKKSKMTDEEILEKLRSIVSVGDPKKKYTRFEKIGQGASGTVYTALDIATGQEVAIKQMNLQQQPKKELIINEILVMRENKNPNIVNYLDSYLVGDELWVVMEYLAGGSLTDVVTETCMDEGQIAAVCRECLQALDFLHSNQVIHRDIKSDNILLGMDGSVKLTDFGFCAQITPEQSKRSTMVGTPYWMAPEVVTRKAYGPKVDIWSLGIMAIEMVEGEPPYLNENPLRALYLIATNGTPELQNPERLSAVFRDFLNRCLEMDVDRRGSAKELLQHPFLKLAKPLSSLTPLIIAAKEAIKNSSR
T11 sequence (P54764 20-986): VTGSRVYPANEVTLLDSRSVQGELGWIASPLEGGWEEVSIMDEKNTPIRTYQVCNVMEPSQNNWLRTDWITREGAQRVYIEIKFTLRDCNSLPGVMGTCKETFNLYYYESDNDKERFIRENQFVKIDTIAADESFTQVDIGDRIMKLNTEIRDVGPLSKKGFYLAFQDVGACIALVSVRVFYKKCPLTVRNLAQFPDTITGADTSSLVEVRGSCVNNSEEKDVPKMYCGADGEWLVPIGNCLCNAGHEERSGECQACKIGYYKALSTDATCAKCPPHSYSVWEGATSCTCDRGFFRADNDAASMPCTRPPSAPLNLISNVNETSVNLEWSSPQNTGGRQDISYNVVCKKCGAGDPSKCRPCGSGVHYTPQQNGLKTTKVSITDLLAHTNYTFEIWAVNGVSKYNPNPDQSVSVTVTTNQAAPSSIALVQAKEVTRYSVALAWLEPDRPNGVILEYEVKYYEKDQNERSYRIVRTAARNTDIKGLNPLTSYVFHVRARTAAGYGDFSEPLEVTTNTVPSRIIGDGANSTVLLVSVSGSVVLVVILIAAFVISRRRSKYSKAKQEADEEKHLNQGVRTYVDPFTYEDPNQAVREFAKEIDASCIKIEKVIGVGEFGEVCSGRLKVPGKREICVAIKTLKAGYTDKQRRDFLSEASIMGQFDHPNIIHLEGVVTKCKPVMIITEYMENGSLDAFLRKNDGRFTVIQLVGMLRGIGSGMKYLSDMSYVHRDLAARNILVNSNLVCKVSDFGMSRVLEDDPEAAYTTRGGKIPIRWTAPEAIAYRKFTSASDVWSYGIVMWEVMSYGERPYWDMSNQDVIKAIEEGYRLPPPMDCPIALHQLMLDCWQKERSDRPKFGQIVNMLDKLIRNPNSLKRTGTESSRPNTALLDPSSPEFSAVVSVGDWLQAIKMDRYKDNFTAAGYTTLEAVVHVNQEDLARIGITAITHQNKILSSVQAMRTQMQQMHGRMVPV
T19 sequence (Q96PF2 whole entry): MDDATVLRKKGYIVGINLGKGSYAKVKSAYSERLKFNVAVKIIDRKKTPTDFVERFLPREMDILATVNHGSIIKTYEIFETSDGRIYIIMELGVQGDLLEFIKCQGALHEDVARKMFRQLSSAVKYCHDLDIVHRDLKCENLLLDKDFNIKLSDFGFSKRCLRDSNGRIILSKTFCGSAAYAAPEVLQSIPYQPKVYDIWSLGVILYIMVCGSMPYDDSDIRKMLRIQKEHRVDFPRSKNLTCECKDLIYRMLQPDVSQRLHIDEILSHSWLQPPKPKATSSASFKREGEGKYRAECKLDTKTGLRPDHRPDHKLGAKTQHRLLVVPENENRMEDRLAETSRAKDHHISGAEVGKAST

## O=C1NCCC12CCN(c1c(Cl)cncc1-c1ccc(N3CCOCC3)cc1)CC2 [Compound 44, 8-(3-Chloro-5-(4-morpholin-4-ylphenyl)pyridin-4-yl)-2,8-diazaspiro[4.5]decan-1-one]
[1]
  glutathione adduct in an in vitro reactive metabolite assay: generated a glutathione adduct
TP (h) (TXA2/PGH2)
  inhibition at 10 µM: 14%
ARG
  remaining activity at 1 µM: -12%
DRAK1
  remaining activity at 1 µM: 4%
MAPK2
  remaining activity at 1 µM: 10%
MKK6
  remaining activity at 1 µM: 48%
MST1
  remaining activity at 1 µM: 14%
PAK3
  remaining activity at 1 µM: 17%
ACK1
  remaining activity at 1 µM: 0%

## Cn1cc(-c2ccc(-c3cncc(Cl)c3N3CCC4(CCNC4=O)CC3)cc2)cn1 [Compound 74, 8-(3-Chloro-5-(4-(1-methyl-1H-pyrazol-4-yl)phenyl)pyridin-4-yl)-2,8-diazaspiro[4.5]decan-1-one]
CYP450 2C19
  pIC50: 5.10
AURKA
  remaining activity at 1 µM: 6%
EGFR(L861Q)
  remaining activity at 1 µM: 0%
EPHA4
  remaining activity at 1 µM: -26%
FLT3(D835Y)
  remaining activity at 1 µM: -11%
IGF-1R
  remaining activity at 1 µM: 5%
CKIT(D816V)
  remaining activity at 1 µM: 7%
P70S6K
  remaining activity at 1 µM: -15%
PKBALPHA
  remaining activity at 1 µM: 2%
PKCBETAI
  remaining activity at 1 µM: -23%
PKCEPSILON
  remaining activity at 1 µM: -22%
TSSK2
  remaining activity at 1 µM: -1%
CK1GAMMA2
  remaining activity at 1 µM: 10%
CAMKIIGAMMA
  remaining activity at 1 µM: 1%
CKIT(D816H)
  remaining activity at 1 µM: -7%
EGFR(T790M)
  remaining activity at 1 µM: 0%
EGFR(T790M,L858R)
  remaining activity at 1 µM: -4%
MER
  remaining activity at 1 µM: -6%
PDGFRALPHA(V561D)
  remaining activity at 1 µM: 6%
CHK2(I157T)
  remaining activity at 1 µM: 2%
ABL (H396P)
  remaining activity at 1 µM: 17%
ABL (M351T)
  remaining activity at 1 µM: 5%
ABL(Y253F)
  remaining activity at 1 µM: -11%
TIE2(Y897S)
  remaining activity at 1 µM: 4%
PI3 KINASE (H1047R/P85A)
  remaining activity at 1 µM: -1%
PEK
  remaining activity at 1 µM: 8%
PRKAA2
  remaining activity at 1 µM: 2%
hERG
  pIC50: < 5.00
CYP450 1A2
  pIC50: < 4.70
CYP450 2B8
  pIC50: < 4.70
RKO-F1522 cells
  pIC50: < 5.00

Source: PMC4767141, “Discovery of Potent, Orally Bioavailable, Small-Molecule Inhibitors of WNT Signaling from a Cell-Based Pathway Screen” (Journal of Medicinal Chemistry, 2015)
